Measurements published in patent publication US20260219274A1, “POLYOL SWEETNERS AND CARDIOVASCULAR AND THROMBOTIC EVENT RISK” (THE CLEVELAND CLINIC FOUNDATION, priority 2023, published 2026).

Assays:
[1] = test system: human platelet-rich plasma; assay: Aggregometry in platelet-rich plasma; assay type: cell-based; details: for platelet responsiveness / aggregation with varying polyol level: fixed submaximal ADP or TRAP6, varying pre-incubation levels
Method: Aggregometry in platelet rich plasma (PRP) was performed as previously described^40 and outlined in supplemental methods.
Platelet rich plasma (PRP) was isolated as previously described.^5 Whole blood was drawn from healthy donors and anticoagulated with sodium citrate (0.109 M). PRP was prepared by centrifuging at 100×g for 10 min at 22° C. Platelet poor plasma (PPP) was obtained by additional centrifugation of the remaining blood samples at 11,000×g for 2 min. Next, platelets were counted with a hemocytometer and the platelet concentration adjusted to 2×10^8/mL using PPP. PRPs were then pre-incubated with xylitol (Catalogue #X3375-5G, Sigma, St. Louis, MO, USA) at indicated concentrations or vehicle (saline) for 30 min at 22° C. After exposure to xylitol or vehicle, PRPs were maintained in suspension with constant stirring (600 rpm) at 37° C. Subsequently, platelet aggregation was induced by adding the agonists ADP (up to 5 μM, Catalogue #384, Chronolog, Havertown, PA, US) or TRAP6 (TFLLR-NH2, up to 10 μM, Catalogue #464, Tocris, Bristol, UK). For all platelet aggregometry experiments, blood was always processed within approx. 30 minutes of collection, and isolated platelets were used within 120 minutes of isolation. When used, pairs of vehicle vs. xylitol incubated PRP were always incubated and analyzed together (beginning, middle, end of platelet prep use) and after 120 minutes post isolation, PRPs were not used anymore.
Platelet rich plasma (PRP) and platelet poor plasma (PPP) was prepared as previously described with sodium citrate (0.109 M) as anticoagulant^51. Platelets were counted and concentrations adjusted to 2×10^8/mL with PPP. PRPs were pre-incubated with erythritol (Catalogue #E7500, Sigma, St. Louis, MO, USA), glucose (Catalogue #G7021, Sigma, St. Louis, MO, USA) or 1,5-AHG (Catalogue #29874, Cayman Chemical, Ann Arbor, Michigan, USA) (at indicated concentrations) or vehicle (saline) for 30 min at 22° C. After pre-incubation PRPs were maintained in suspension with constant stirring (600 rpm) at 37° C. and platelet aggregation was initiated using ADP (up to 5 μM, Catalogue #384, Chronolog, Havertown, PA, US) or TRAP6 (TFLLR-NH2, up to […], Catalogue #464, Tocris, Bristol, UK).

C57BL/6J mice = assay: Carotid artery FeCl3 injury thrombosis model; assay type: in vivo; details: for rate of clot / thrombus formation / time to cessation of blood flow following arterial injury: 25 mg/kg i.p. vs vehicle (saline)
Method: Mice were used to causally test whether elevation in xylitol plasma levels results in enhancement in thrombosis potential. All mice were C57BL/6J and 12-14 weeks of age. All animal studies were approved by the Institutional Animal Care and Use Committee at the Cleveland Clinic (IRB 2019-2251).
The FeCl3-induced carotid artery injury model was performed using intravital fluorescence microscopy with continuous image capture monitoring, as previously described.^44 Time to cessation of blood flow through thrombus formation for all experiments was determined by visual inspection by two independent investigators.
The FeCl3-induced carotid artery injury model was performed as previously described.^9 BL/6J mice, both male and female, 12-14 weeks of age, were i.p. injected with vehicle (saline) or xylitol (25 mg/kg). The animals were anesthetized with 100 mg/kg ketamine+10 mg/kg xylazine and rhodamine 6G (100 μL; 0.5 mg/mL, catalogue #252433, Sigma, St. Louis, MO, USA) was injected into the right jugular vein for platelet labeling. The left carotid artery was then exposed, and an injury induced using a 1 mm^2 Whatman filter paper containing 10% FeCl3 (Catalogue #157740, Sigma, St. Louis, MO, USA) for 1 min. Thrombus formation in real time was monitored using intravital fluorescence microscopy equipped with video recording. Time to cessation of blood flow through thrombus formation for all experiments was determined by visual inspection by two independent investigators and animals were immediately euthanized after data acquisition.
The common carotid artery FeCl3 induced injury model was performed as previously described^54. 12-14 weeks old BL/6J mice were injected with vehicle (normal saline), erythritol (25 mg/kg) or 1,5-AHG (25 mg/kg) and anesthetized with 100 mg/kg ketamine+10 mg/kg xylazine. Rhodamine 6G (100 μL; 0.5 mg/mL, catalogue #252433, Sigma, St. Louis, MO, USA) was injected into the right jugular vein to label platelets. The left carotid artery was then injured with a Whatman filter paper of 1 mm^2 size containing 10% FeCl3 (Catalogue #157740, Sigma, St. Louis, MO, USA) for 1 min. Intravital fluorescence microscopy equipped with video recording was used to monitor thrombus formation in real time. Time to cessation of blood flow through clot formation for all studies was determined by visual inspection of captured video by two independent investigators in real time. Data for the in vivo thrombosis were collected by Streampix 7—Multiple Camera DVR Software (NorPix Inc, Montreal, Canada). Animals were immediately euthanized after data acquisition.

[2] = test system: PRP from healthy volunteers; assay: Xylitol dietary challenge: platelet aggregometry before and 30 min after ingestion; assay type: in vivo, human
Method: The second part of xylitol ingestion studies focused on platelet phenotypic changes after oral xylitol challenge. In these parallel studies, platelet-rich plasma (PRP) was isolated immediately after the blood draw (from the same subjects that were used for xylitol pharmacokinetics studies) and aggregometry assays performed (as described below) on blood samples collected at baseline and 30 min (when postprandial peak levels were observed) after xylitol exposure.
A non-randomized study design was used wherein each subject served as their own control, comparing both xylitol levels and indices of platelet function within subjects at baseline versus 30 min following ingestion of the standardized drink of xylitol. […]
Platelet rich plasma (PRP) was isolated as previously described.^5 Whole blood was drawn from healthy donors and anticoagulated with sodium citrate (0.109 M). […] Next, platelets were counted with a hemocytometer and the platelet concentration adjusted to 2×10^8/mL using PPP. […] When used, pairs of vehicle vs. xylitol incubated PRP were always incubated and analyzed together (beginning, middle, end of platelet prep use) and after 120 minutes post isolation, PRPs were not used anymore.

Structure (SMILES) | stimulus-dependent platelet aggregation response to ADP and TRAP6 ([1]; PRP incubated with the polyol versus vehicle, submaximal agonist) | platelet responsiveness / aggregation with varying polyol level [1] | erythritol concentration eliciting significant increase in ADP-stimulated aggregometry responses ([1]; threshold, FIG. 27) | erythritol concentration eliciting significant increase in thrombin-stimulated aggregometry responses ([1]; threshold, FIG. 27) | rate of clot / thrombus formation (C57BL/6J mice) | time to cessation of blood flow following arterial injury (C57BL/6J mice) | stimulus-dependent platelet activation and aggregation ([1]; xylitol 30 μM with sub-maximal ADP or TRAP6) | effect on PRP without agonist ([1]; xylitol 30 μM, brief incubation) | plasma xylitol level at which heightened thrombosis potential was observed (C57BL/6J mice; animal model of thrombosis (FIG. 4B)) | aggregation responses to ADP or TRAP6 after ingestion ([2]; 30 min after 30 g xylitol vs baseline) | platelet responsiveness of individual subjects ([2]; submaximal ADP and TRAP6, after xylitol ingestion, every subject)
OC[C@@H](O)[C@@H](O)CO [erythritol] | significant increase | dose-dependently enhanced | 18 µM | 18 µM | marked enhancement | significant reduction | – | – | – | – | –
OC[C@@H](O)[C@H](O)[C@@H](O)CO [xylitol] | – | dose-dependent enhancement | – | – | marked increase | significant reduction | marked enhancement | no effect | 19 µM | substantial (multiple-fold) increase | significant increase
